Experimental findings from patent publication US20260115209A1, “COMBINATION THERAPY INCLUDING COX-2 INHIBITOR FOR THE TREATMENT OF CANCER” (THE REGENTS OF THE UNIVERSITY OF CALIFORNIA, priority 2022, published 2026) are described below.

Test [1] relates to BRAF^V600E CRC cell lines. Briefly: Cell viability assays, drug combinations, shift in vemurafenib sensitivity and combination index. Type of test: cell-based. Particulars: FIG. 5C. As to the method: To assess the growth/survival response of cell lines to single or combinatorial drug treatments, we used CellTiter-Glo cell viability assay (Promega; cat #G7571). Cell culture and luminescence readouts were performed in 96- and 384-well plates after 3-day treatments.
To calculate CI values in FIGS. 2A, 2B, 2E, FIGS. 5C, 5E, 5G and FIG. 6A, we applied the Bliss Independence model (54,55), which uses experimental profiles and avoids inaccuracies that commonly occur with dose-effect curve estimation approaches. CI is calculated as CI=−log 2 (Eab/(Ea*Eb)), where Ea and Eb correspond to the effects of drugs a and b alone at a given concentration, and Eab corresponds to the combined effects of drugs a and b at these same concentrations. In this model, CI>0 indicates synergistic effect, CI=0 indicates additivity effect, CI<0 indicates antagonistic effect.
To compare the effects of triple versus dual drug combinations in FIG. 3B, we calculated CI as follow: CI=−log 2 (Eabc/(Ea*Eb)), where Ea and Eb correspond to the effects of drugs a/VEM, b/GEF alone at a given concentration, and Eabc corresponds to the combined effects of drugs a and b at these same concentrations combined with a third drug (c/DAS) at the cell line-specific GI50 of DAS.

Test [2] relates to beta-catenin (CTNNB1) Y654. As to the kind of experiment: Western blot of beta-catenin Y654 phosphorylation. Type of test: cell-based. Particulars: BRAF^V600E CRC cell lines, FIG. 4A, 11C, 12A. As to the method:
(§1) For samples to be analyzed with the HT-KAM platform, cells at ˜85% confluency were washed three times with cold PBS and lysed with freshly prepared 1× cell lysis buffer (1 ml per 2.5×10^6 cells) (lOX Cell Lysis Buffer, Cell Signaling; cat. #9803) complemented with 1× of Halt Protease & Phosphatase (100×, ThermoScientific; cat. #1861281). Cell lysates were collected and spun down at 14,000 rpm for 15 min at 4° C. and supernatants stored at −80° C. For samples to be analyzed by western blot, cell lysates were prepared with RIPA lysis buffer (150 mM NaCl, 0.1% SDS, 1% Nonidet P40, 1% sodium deoxycholate and 10 mM sodium phosphate, pH 7.2) supplemented with protease and phosphatase inhibitors. After clearing by centrifugation at 12,000 rpm for 10 minutes at 4° C., the lysates were analyzed as described in the respective experiments.
(§2) For western-blot, samples were denatured by boiling in 1× Laemmli buffer and run on an 8% SDS-PAGE gel. After transfer onto a PVDF membrane and blocking with 3% BSA, the membranes were incubated with primary antibodies overnight at 4° C., washed 3 times with TBST (Tris-buffered saline containing 0.05% Tween-20), incubated with secondary antibodies for 1 hour at room temperature and developed using chemoluminescence (cat #32209 from Pierce).

A further test relates to SFK. As to the kind of experiment: Western blot of SFK activation (Y419 phosphorylation). Type of test: cell-based. To be noted: BRAF^V600E CRC cell lines. As to the method: as §1, §2
Antibodies anti-HSP90 was procured from Santa Cruz Biotechnologies (H-114, cat #7947). […]

The test system of another test is SRC. As to the kind of experiment: Automated IHC of active and total SRC in PDX tumors. In kind it is in vivo, mice. Particulars: both PDX models after 3 or 21 days of treatment; FIGS. 1E, 1F, 8B, 8C. As to the method: Primary antibody was diluted in Discovery Ab Diluent.
To detect phospho-Y419 SRC, phospho-Src (Y419) […] rabbit polyclonal supplied by R&D Systems (Cat #AF2685) was used at a titration of 1:50. […] Inhibitor was applied for 16 min.
To detect total SRC, TOTAL SRC (36D1) rabbit monoclonal manufactured by Cell Signaling Technology (Cat #2109) was used at a titration of 1:800. […] Inhibitor was applied for 16 minutes.

The subject of a further test is WiDr. As to the kind of experiment: Cell viability assay (CellTiter-Glo), GI50, 3-day treatment. Type of test: cell-based. To be noted: Homo sapiens, 72 h; WiDr (BRAF^V600E CRC); 50% growth inhibition after 3 days of treatment compared to control; read-out: GI50 concentrations. As to the method: (§3) To assess the growth/survival response of cell lines to single or combinatorial drug treatments, we used CellTiter-Glo cell viability assay (Promega; cat #G7571). Cell culture and luminescence readouts were performed in 96- and 384-well plates after 3-day treatments. GI50 corresponds to the concentration of a given drug that causes 50% inhibition of cell growth (GI50). The effects of drug combinations on cell growth were assessed by calculating fold change in VEM-sensitivity and combination index (C.I.) that were experimentally measured from ≥9 individual datapoints around drugs' GI50, i.e. at GI50, 0.5×GI50, 2×GI50 concentrations of each drug per drug combination experiment. To address the particular effects of some drug treatments on some cell lines, the choice of experimental datapoints centered around drugs' GI50 effects was adjusted by including individual datapoints ranging from ≥GI25 to ≤GI75, leading to calculate fold change in VEM-sensitivity and combination index (C.I.) from 12 to 20 individual datapoints, as previously explained (7).

For the next test, the system named is OUMS23. The test is described as above. In kind it is cell-based. To be noted: OUMS-23, 72 h; OUMS23 (CRC MAP3K8^amp); 50% growth inhibition after 3 days of treatment compared to control; read-out: GI50 concentrations. As to the method:
as §3

The test system of another test is HT29. The test is described as above. Particulars: Homo sapiens, HT-29, 72 h; HT29 (BRAF^V600E CRC); 50% growth inhibition after 3 days of treatment compared to control; read-out: GI50 concentrations. Type of test: cell-based. As to the method: as §3
Another test concerns LS411N. The test is described as above. Type of test: cell-based. Particulars: Homo sapiens, LS-411N, 72 h; LS411N (BRAF^V600E CRC); 50% growth inhibition after 3 days of treatment compared to control; read-out: GI50 concentrations. As to the method: as §3
The subject of another test is Sk-Mel-28. The test is described as above. Type of test: cell-based. Particulars: Homo sapiens, 72 h; Sk-Mel-28 (BRAF^V600E melanoma); 50% growth inhibition after 3 days of treatment compared to control; read-out: GI50 concentrations. As to the method: as §3
The next test deals with RKO1. The description is as above. Type of test: cell-based. To be noted: 72 h; RKO1 (BRAF^V600E CRC); 50% growth inhibition after 3 days of treatment compared to control; read-out: GI50 concentrations. As to the method: as §3
The next test relates to LIM2405. The test is described as above. In kind it is cell-based. To be noted: 72 h; LIM2405 (BRAF^V600E CRC); 50% growth inhibition after 3 days of treatment compared to control; read-out: GI50 concentrations. As to the method: as §3
A further test concerns A375. The description is as above. Type of test: cell-based. Particulars: Homo sapiens, A-375, 72 h; A375 (BRAF^V600E melanoma); 50% growth inhibition after 3 days of treatment compared to control; read-out: GI50 concentrations. As to the method:
as §3

The next test relates to VACO432. The description is as above. Particulars: 72 h; VACO432 (BRAF^V600E CRC); 50% growth inhibition after 3 days of treatment compared to control; read-out: GI50 concentrations. Type of test: cell-based. As to the method: as §3
For a further test, the system named is KM20. Described as above. Type of test: cell-based. Particulars: 72 h; KM20 (BRAF^V600E CRC); 50% growth inhibition after 3 days of treatment compared to control; read-out: GI50 concentrations. As to the method: as §3
A further test relates to SNUC5. Described as above. Type of test: cell-based. Particulars: 72 h; SNUC5 (BRAF^V600E CRC); 50% growth inhibition after 3 days of treatment compared to control; read-out: GI50 concentrations. As to the method:
as §3

Regarding `CCCCC[C@H](O)/C=C/[C@H]1[C@H](O)CC(=O)[C@@H]1C/C=C\CCCC(=O)O` [PGE2, Prostaglandin E2], the “increase in resistance to vemurafenib” value in test [1] (BRAF^V600E CRC cells treated with PGE2, 3-day cell viability assays) is on record as 2 to 4 fold. Further, in [1] (PGE2 with vemurafenib in BRAF^V600E CRC cells, Bliss model), the CI scores result is recorded as “antagonism”. For the same compound, the “phosphorylation of beta-catenin (CTNNB1) at Y654” value in [2] is on record as “increase in phosphorylation”. For the same compound, the “SFK activation (phosphorylation of Y419)” value in the test on SFK was “increase in SFK activation”.
On to `CC(C)(C)c1nc(-c2cccc(NS(=O)(=O)c3c(F)cccc3F)c2F)c(-c2ccnc(N)n2)s1` [dabrafenib, N-[3-[5-(2-Amino-4-pyrimidinyl)-2-(2-methyli-2-propanyl)-1,3-tliazol-4-yl]-2-fluorophenyl]-2,6-difluorobenzenesulfonarmide], for which the “active and total SRC (IHC)” value with SRC is reported as “statistically significant increases”.
Turning to `Cc1nc(Nc2ncc(C(=O)Nc3c(C)cccc3Cl)s2)cc(N2CCN(CCO)CC2)n1` [dasatinib, N-(2-chloro-6-mnethylphenyl)-2-[[6-[4-(2-hydroxyethyl)piperazin-1-yl]-2-methylpyrimidin-4-yl]amino]-1,3-thiazole-5-carboxamide], the GI50 in the test on WiDr came out at 0.9 µM; in the test with OUMS23, 1.9 µM; in the test on HT29, 8 µM; with LS411N, 3 µM; with Sk-Mel-28, 6.5 µM; with RKO1, 10 µM. Further, the GI50 in the test with LIM2405 was 1.5 µM; in the test on A375 it was 3.5 µM; with VACO432, 2 µM; in the test with KM20, 0.8 µM; in the test with SNUC5, 6.5 µM.
`COc1cc2ncnc(Nc3ccc(F)c(Cl)c3)c2cc1OCCCN1CCOCC1` [gefitinib, N-(3-chloro-4-fluorophenyl)-7-methoxy-6-(3-morpholin-4-ylpropoxy)quinazolin-4-amine]: the GI50 in the test with WiDr was found to be 10 µM; with OUMS23 it was 40 µM; in the test on HT29 it was 25 µM; in the test on LS411N, 30 µM; with Sk-Mel-28 it was 20 µM; with RKO1, 40 µM. For the same compound, the GI50 worked out at 30 µM in the test with LIM2405; 30 µM in the test on A375; 7.5 µM in the test with VACO432; 20 µM in the test with KM20; 30 µM in the test on SNUC5.
As to `CC(=O)Nc1cccc(-n2c(=O)n(C3CC3)c(=O)c3c(Nc4ccc(I)cc4F)n(C)c(=O)c(C)c32)c1` [trametinib, N-[3-[3-cyclopropyl-5-(2-fluoro-4-iodoanilino)-6,8-dimethyl-2,4,7-trioxopyrido[4,3-d]pyrimidin-1-yl]phenyl]acetamide], the “active and total SRC (IHC)” value in the test with SRC is recorded as “statistically significant increases”.
